Assay results taken from PubChem BioAssay (NCI).
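Exposure lasted 48 hours, with cells grown in 96-well plates and compounds tested at five concentrations. GI50 is the concentration that inhibits growth by half. Definition used: TGI = concentration required for complete inhibition of growth.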

What was measured:
Assay in all cases: NCI tumour cell line growth inhibition, 48 h
HCT-116 colon = test system: HCT-116 colon
HCT-15 colon = test system: HCT-15 colon
SK-MEL-28 melanoma = test system: SK-MEL-28 melanoma
K-562 leukemia = test system: K-562 leukemia
SK-MEL-2 melanoma = test system: SK-MEL-2 melanoma
HOP-92 NSCLC = test system: HOP-92 NSCLC
CCRF-CEM leukemia = test system: CCRF-CEM leukemia
NCI-H460 lung = test system: NCI-H460 lung
HT29 colon = test system: HT29 colon
OVCAR-4 ovarian = test system: OVCAR-4 ovarian

Row | Compound | TGI (HCT-116 colon) [µM] | TGI (HCT-15 colon) [µM] | TGI (SK-MEL-28 melanoma) [µM] | TGI (K-562 leukemia) [µM] | TGI (SK-MEL-2 melanoma) [µM] | TGI (HOP-92 NSCLC) [µM] | TGI (CCRF-CEM leukemia) [µM] | TGI (NCI-H460 lung) [µM] | TGI (HT29 colon) [µM] | TGI (OVCAR-4 ovarian) [µM] | GI50 (HCT-116 colon) [µM] | GI50 (HCT-15 colon) [µM] | GI50 (SK-MEL-28 melanoma) [µM] | GI50 (K-562 leukemia) [µM] | GI50 (SK-MEL-2 melanoma) [µM] | GI50 (HOP-92 NSCLC) [µM] | GI50 (CCRF-CEM leukemia) [µM] | GI50 (NCI-H460 lung) [µM] | GI50 (HT29 colon) [µM] | GI50 (OVCAR-4 ovarian) [µM]
1 | CC(C)c1c2[nH]c3ccccc3c2c(C(C)C)c2[nH]c3ccccc3c12 | > 100 | > 100 | > 100 | > 100 | > 100 | > 100 | > 100 | > 100 | > 100 | > 100 |  |  |  |  |  |  |  |  |  | 
2 | COc1ccc(C2[C@@H](Cl)C(=O)N2c2cc(OC)c(OC)c(OC)c2)cc1Cl (stereo partly drawn) | 15.2 | > 100 | 87.3 | > 100 | 22.5 | 85.9 | 39.4 | 6.95 | 0.752 | > 100 | 0.0721 | 0.191 | 0.654 | 0.041 | 0.177 | 2.29 | 0.19 | 0.317 | 0.221 | 0.837
3 | N#Cc1c(N)[nH]c2ccc(Sc3ccccc3)cc12 | 8.34 | 14.9 | 17.4 | 9.71 | 17.5 | 19.8 | 13.8 | 21.6 | 9.01 | 21.6 |  |  |  |  |  |  |  |  |  | 
4 | C[CH2][Pb]([CH2]C)([CH2]C)[O]C(=O)c1ccc2ccccc2n1 | > 10 | > 10 | > 10 | > 10 | > 10 | > 10 | > 10 | > 10 | > 10 | > 10 | > 10 | > 10 | > 10 | > 10 | > 10 | > 10 | > 10 | > 10 | > 10 | > 10
5 | COc1ccc2cc(-c3c(-c4ccncc4)nc(-c4ccc(S(C)=O)cc4)n3C)ccc2c1 (stereo not drawn) | > 25 | > 25 | > 25 | > 25 | > 25 | > 25 | > 25 | > 25 | > 25 | > 25 | 19.1 | 9.57 | 24.2 | 15.6 | > 25 | 5.67 | > 21.6 | 24.8 | 9.06 | 20.6
6 | COC(CN1C=C(Sc2ccccc2)CC1)OC | > 100 | > 100 | > 100 | 53.7 | 44.8 | 86.5 | 62.8 | > 100 | 54.2 | > 100 |  |  |  |  |  |  |  |  |  | 
7 | Nc1ccccc1SCc1csc(-c2ccc(Cl)cc2)n1 | > 100 | > 82.1 | > 94.5 | 63.9 | 35.2 | 60.1 | 67.1 | > 77.2 | 46.2 | > 77.1 |  |  |  |  |  |  |  |  |  | 
8 | CCO/C=C1\N=C(c2ccccc2Br)OC1=O |  | > 100 | > 100 | > 100 | > 100 | > 100 | > 100 | > 100 | > 100 | > 100 |  |  |  |  |  |  |  |  |  | 
9 | COc1cc2nc(NCCCCCNC(=O)c3ccco3)nc(N)c2cc1OC |  | > 100 | 36.2 | > 100 | 36.5 | 42 | 88.2 | > 100 | > 100 | > 100 |  |  |  |  |  |  |  |  |  | 
